Where two headings read alike, the source gives them in different places.
Assays:
HUVEC = assay: Growth inhibition studies using HUVEC; format: cell-based, human
Experimental: (§1) The following assays (1–5) were carried out as described in our paper (Woods, et al, British Journal of Cancer, 71, 705–711 (1995)). In addition to the cell lines described in this paper, other established human cell lines (K562, HUVEC, H460, BE, H529, and HT29) were used in the cytotoxicity/growth inhibition assay. • (1) Inhibition of tubulin assembly. The figure quoted is the concentration required to reduce assembly of tubulin by 50%. Tubulin assembly is monitored by light scatter/absorption at 350 nm.
(§2) (2) Competition for the colchicine binding site on tubulin. The figure quoted represents the % of ^3H-colchicine bound following co-incubation of test compound and ^3H-cochicine with isolated tubulin. Where ester pro-drugs were used the experiments were carried out in the presence and absence of porcine liver esterase. • (3) Cytotoxicity/growth inhibition assay. This was carried out by the MTT assay. • (4) Permeability (shape-change) assay in endothelial cells. This was carried out using a method based on that of Watts et al. (Anticancer Res., 17, 71–75, (1997)). This involved the diffusion of a fluorescently labelled dextran through a barrier of endothelial cells (HUVEC) grown to confluence on a porous membrane. The effect of agents to alter the shape of these cells results in an increase in the permeability of the cells to the dye. The figure represents the increase in permeability over control cultures when drug is added (30 minutes, 1 mM.). • (5) Experiments to study the anti-vascular effects of these agents were carried out as described previously by our group. (Zhao et al, European Journal of Nuclear Medicine, 26, 231–238 (1999)). The anti-vascular effects of the agents were monitored by either positron emission tomography (PET) or by histologogical examination following treatment of mice bearing T50:80 murine breast tumours, or H460 human lung tumours. • (6) Anti-tumour efficacy of agents was determined in xenografts of H460 human lung cancer. Animals (n=5) were trated either with 5 daily injections and tumour size measured with time following treatment. • (7) The pharmacokinetic profile of agents was determined in mice following injection with drug. Blood was taken at various times following treatment and analysed by HPLC with UV detection. The HPLC conditions were isocratic using a 5 micron C18 BDS column (150×4.6) ad eluting with 75% MeOH in water with a detection wavelength of 290 nm. […] (AND(P)H:quinone oxidoreductace, EC 1.6.99.2). DT-diaphorase is an enzyme over-expressed in a number of human tumours. […] This two-electron reducing enzyme can be used to selectively activate prodrugs within cancers which over-express the enzyme.

tubulin = tested on: T1, tubulin; assay: Inhibition of tubulin assembly; format: biochemical; conditions: concentration required to reduce assembly of tubulin by 50%
T1 construct: other: concentration required to reduce assembly of tubulin by 50%
Experimental: as §1

[1] = tested on: colchicine binding site on tubulin; assay: Competition for the colchicine binding site on tubulin
[2] = tested on: P388 murine leukaemia cell line; assay: Cytotoxicity/growth inhibition assay (MTT), P388; format: cell-based
Summary of the method: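 Growth inhibition of P388 murine and K562 human leukaemia cells measured by MTT assay.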

A2780 = assay: Cytotoxicity/growth inhibition assay (MTT), A2780; format: cell-based
Summary of the method: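 MTT cytotoxicity/growth-inhibition assay in human cell lines including A2780, A2780/ADR, H460 and HUVEC.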

DT-diaphorase = DT-diaphorase (Homo sapiens, UniProt P15559); assay: Activation of quinone prodrugs by DT-diaphorase; format: biochemical; conditions: comparable to RH1
Experimental: (2) Competition for the colchicine binding site on tubulin. The figure quoted represents the % of ^3H-colchicine bound following co-incubation of test compound and ^3H-cochicine with isolated tubulin. Where ester pro-drugs were used the experiments were carried out in the presence and absence of porcine liver esterase. • (3) Cytotoxicity/growth inhibition assay. This was carried out by the MTT assay. • (4) Permeability (shape-change) assay in endothelial cells. This was carried out using a method based on that of Watts et al. (Anticancer Res., 17, 71–75, (1997)). This involved the diffusion of a fluorescently labelled dextran through a barrier of endothelial cells (HUVEC) grown to confluence on a porous membrane. […] The anti-vascular effects of the agents were monitored by either positron emission tomography (PET) or by histologogical examination following treatment of mice bearing T50:80 murine breast tumours, or H460 human lung tumours. • (6) Anti-tumour efficacy of agents was determined in xenografts of H460 human lung cancer. Animals (n=5) were trated either with 5 daily injections and tumour size measured with time following treatment. • (7) The pharmacokinetic profile of agents was determined in mice following injection with drug. Blood was taken at various times following treatment and analysed by HPLC with UV detection. […]

[3] = tested on: H460 human lung cell line; assay: Cytotoxicity/growth inhibition assay (MTT), H460; format: cell-based
Experimental: as §1, §2

[4] = tested on: diaphorase null H596 cell line; assay: Cytotoxicity/growth inhibition assay (MTT), H596; format: cell-based; conditions: for H596/H460: ratio of IC50, diaphorase null H596 over H460
Experimental: as §1
(2) Competition for the colchicine binding site on tubulin. The figure quoted represents the % of ^3H-colchicine bound following co-incubation of test compound and ^3H-cochicine with isolated tubulin. Where ester pro-drugs were used the experiments were carried out in the presence and absence of porcine liver esterase. • (3) Cytotoxicity/growth inhibition assay. This was carried out by the MTT assay. • (4) Permeability (shape-change) assay in endothelial cells. This was carried out using a method based on that of Watts et al. (Anticancer Res., 17, 71–75, (1997)). This involved the diffusion of a fluorescently labelled dextran through a barrier of endothelial cells (HUVEC) grown to confluence on a porous membrane. The effect of agents to alter the shape of these cells results in an increase in the permeability of the cells to the dye. The figure represents the increase in permeability over control cultures when drug is added (30 minutes, 1 mM.). • (5) Experiments to study the anti-vascular effects of these agents were carried out as described previously by our group. (Zhao et al, European Journal of Nuclear Medicine, 26, 231–238 (1999)). The anti-vascular effects of the agents were monitored by either positron emission tomography (PET) or by histologogical examination following treatment of mice bearing T50:80 murine breast tumours, or H460 human lung tumours. • (6) Anti-tumour efficacy of agents was determined in xenografts of H460 human lung cancer. Animals (n=5) were trated either with 5 daily injections and tumour size measured with time following treatment. • (7) The pharmacokinetic profile of agents was determined in mice following injection with drug. Blood was taken at various times following treatment and analysed by HPLC with UV detection. The HPLC conditions were isocratic using a 5 micron C18 BDS column (150×4.6) ad eluting with 75% MeOH in water with a detection wavelength of 290 nm. The retention time of 6.6 mins for 97–64H. • (8) Activation of quinone prodrugs by DT-diaphorase. (AND(P)H:quinone oxidoreductace, EC 1.6.99.2). DT-diaphorase is an enzyme over-expressed in a number of human tumours. We have recently shown this enzyme to be highly expressed in the endothelial cells of blood vessels. This two-electron reducing enzyme can be used to selectively activate prodrugs within cancers which over-express the enzyme. We have therefore synthesised quinone pro-drugs (97–96, 98–40, 98–23, 98–33, 98–24) which, upon reduction by the enzyme, produces an agent (a hydroquinone stilbene) which is cytotoxic.
A series of prodrugs capable of being activated by DT-diaphorase, an enzyme over-expressed in a wide range of human cancers and in endothelial cells of the vasculature were synthesised. The rationale for this is that these agents will be activated in situ by the tumours over-expressing the enzyme, thus giving rise to a high local concentration of active drug. This confers selectivity to this agent. These quinone prodrugs (97–96 and 98–23) were tested for their ability to act as substrates for DT-diaphorase. […] This agent may therefore have a role in the treatment of tumours that over-express DT-diaphorase. Similarly, these agents maybe selectively activated in the endothelial cells of the vasculature, thereby conferring a selective anti-vascular effect.

[5] = tested on: cancer cell growth in vitro; assay: Inhibition of cancer cell growth in vitro (cell line not stated); format: cell-based; conditions: read-out: IC50, ability to inhibit cancer cell growth in vitro
K562 cells = assay: In situ ultra violet irradiation of dosed K562 cells, IC50; format: cell-based, human; conditions: K562, in situ, within 2 seconds of exposure; read-out: IC50 after exposure to ultraviolet light
Experimental: Previously, the isomerisation study had been performed ex situ, i.e. in a photochemical reactor. However, it was necessary to illustrate the potential of the process as a real therapy by repeating the isomerization in the presence of the caner cells i.e. in situ. […] Following irradiation, the cells were incubated in the normal way and the IC50 values were determined.
These consisted of i) exposing K562 cells only (i.e. cells which were not dosed with any potential drug candidate) to ultra violet light, ii) preventing K562 cells dosed with drug candidate from being exposed to ultra violet light, and iii) preventing K562 cells only (i.e. cells which were not dosed with any potential drug candidate) from being exposed to ultra violet light. […]

[6] = tested on: cancer cell growth in vitro; conditions: background; cited from earlier work
[7] = background; cited from earlier work
K562 = K562 cell cycle analysis; format: cell-based, human
[8] = Homo sapiens, A2780, read-out: A2780 IC50

Sequence of DT-diaphorase (P15559 whole entry, species assumed, the tested form may be a part): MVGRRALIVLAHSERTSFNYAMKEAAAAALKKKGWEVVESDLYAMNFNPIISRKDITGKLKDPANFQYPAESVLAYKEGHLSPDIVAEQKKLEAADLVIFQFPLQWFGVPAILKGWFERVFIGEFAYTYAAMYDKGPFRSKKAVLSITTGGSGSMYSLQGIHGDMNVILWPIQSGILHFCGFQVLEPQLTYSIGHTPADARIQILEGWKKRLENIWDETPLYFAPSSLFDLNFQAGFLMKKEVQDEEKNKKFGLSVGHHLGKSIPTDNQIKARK

COc1cc(C=Cc2ccc(C)c(O)c2)cc(OC)c1OC [Compound 98-21]
IC50 (HUVEC; Homo sapiens, HUVEC): 9.5 nM
IC50 (tubulin): < 1.25 µM
Colchicine % Inhibition [1]: 1.4%
IC50 ([2]; Mus musculus, P388, MTT): 0.935 nM
IC50 (A2780; [8]): 0.66 nM

COc1cc(/C=C\C2=CC(=O)C(C)=CC2=O)cc(OC)c1OC [Compound 98-23]
ability to act as substrate for DT-diaphorase (DT-diaphorase): good substrates for the enzyme
IC50 [2]: 2180 nM
IC50 ([2]; MTT): 2180 nM
IC50 (A2780; read-out: A2780 IC50): 2150 nM
IC50 (A2780; read-out: IC50 (nM) A2780): 2150 nM
IC50 [3]: 4370 nM
IC50 [4]: 2280 nM
H596/H460 [4]: 0.52

COC1=CC(=O)C(CCc2cc(OC)c(OC)c(OC)c2)=CC1=O [Compound 98-24]
IC50 ([2]; Mus musculus, P388): 17000 nM
IC50 (A2780; Homo sapiens, A2780, read-out: IC50 (nM) A2780): 1630 nM
IC50 ([3]; Homo sapiens, NCI-H460): 3080 nM
IC50 ([4]; Homo sapiens, NCI-H596): 1950 nM
H596/H460 [4]: 0.63

COc1ccc(C=Cc2cc(OC)c(OC)c(OC)c2)cc1OCc1ccccc1[N+](=O)[O-] [Compound 98-29]
IC50 (HUVEC; Homo sapiens, HUVEC): 430 nM
IC50 (tubulin): > 100 µM
Colchicine % Inhibition [1]: 53%
IC50 ([2]; Mus musculus, P388, MTT): 450 nM
IC50 (A2780; [8]): 380 nM

COc1cc(/C=C/C2=CC(=O)C(C)=CC2=O)cc(OC)c1OC [Compound 98-33]
IC50 [2]: < 780 nM
IC50 (A2780; read-out: IC50 (nM) A2780): 950 nM
IC50 [3]: 4110 nM
IC50 [4]: 1490 nM
H596/H460 [4]: 0.36

COc1cc(/C=C\c2ccc(C)c(F)c2)cc(OC)c1OC [Compound 98-35H]
IC50 (HUVEC): 16 nM
IC50 (tubulin): 6.25 µM
Colchicine % Inhibition [1]: 5%
IC50 ([2]; MTT): 3.28 nM
IC50 (A2780; read-out: A2780 IC50): 1.44 nM

c1ccc2c(c1)ccc1ccccc12 [phenanthrene]
IC50 [5]: 700 nM

COc1ccc(/C=C/c2cc(OC)c(OC)c(OC)c2)cc1O [trans-CA-4, trans-combretastatin A-4, reference compound]
IC50 (K562 cells): 2 nM
inhibits cell growth [6]: μM range

cis-combretastatin A-4 [Compound 1, reference compound]
water solubility [7]: poor water solubility
% of cells in G0–G1 (K562): 3%
% of cells in G2-M (K562): 92%
% of cells in S phase (K562): 6%
% of cells with DNA content <2 n (K562): 7%

From patent US7220784B2, “Substituted stilbenes and their reactions” (priority 2000, dated 2007)
